Source: the supplement of paper PMC10307832

Tests used:
Assay in all cases: relative viability (nuclei count vs DMSO), 5 days (fraction); higher = more cells survive
R406 + Bortezomib = compound: COc1cc(Nc2ncc(F)c(Nc3ccc4c(n3)NC(=O)C(C)(C)O4)n2)cc(OC)c1OC [R406] + CC(C)C[C@H](NC(=O)[C@H](Cc1ccccc1)NC(=O)c1cnccn1)B(O)O [Bortezomib] (partner 0.002 µM)
How it was run: (§1)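 One day after seeding in 1536-well plates, lung cancer cell lines were dosed by pin tool. Dosing was either single-drug or a fixed anchor-drug dose plus five library-drug doses (not always all listed) in √10 steps. After 5 days, nuclei were stained in one fix-and-stain step and counted on 4× images, and relative viability is the nuclei count of treated wells over that of vehicle wells, given as the median of duplicate plates.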

R406 + Linsitinib = compound: COc1cc(Nc2ncc(F)c(Nc3ccc4c(n3)NC(=O)C(C)(C)O4)n2)cc(OC)c1OC [R406] + C[C@]1(O)C[C@@H](c2nc(-c3ccc4ccc(-c5ccccc5)nc4c3)c3c(N)nccn32)C1 [Linsitinib] (partner 1 µM)
How it was run: as §1

Daporinad + Palbociclib = compound: O=C(/C=C/c1cccnc1)NCCCCC1CCN(C(=O)c2ccccc2)CC1 [Daporinad] + CC(=O)c1c(C)c2cnc(Nc3ccc(N4CCNCC4)cn3)nc2n(C2CCCC2)c1=O [Palbociclib] (partner 0.5 µM)
How it was run: as §1

Daporinad + Dasatinib = compound: O=C(/C=C/c1cccnc1)NCCCCC1CCN(C(=O)c2ccccc2)CC1 [Daporinad] + Cc1nc(Nc2ncc(C(=O)Nc3c(C)cccc3Cl)s2)cc(N2CCN(CCO)CC2)n1 [Dasatinib] (partner 0.075 µM)
How it was run: as §1

Row | Cell Line | relative viability (R406 + Bortezomib; first compound 0.08 µM) | relative viability (R406 + Bortezomib; first compound 0.253 µM) | relative viability (R406 + Bortezomib; first compound 0.8 µM) | relative viability (R406 + Bortezomib; first compound 2.53 µM) | relative viability (R406 + Bortezomib; first compound 8 µM) | relative viability (R406 + Linsitinib; first compound 0.08 µM) | relative viability (R406 + Linsitinib; first compound 0.253 µM) | relative viability (R406 + Linsitinib; first compound 0.8 µM) | relative viability (R406 + Linsitinib; first compound 2.53 µM) | relative viability (R406 + Linsitinib; first compound 8 µM) | relative viability (Daporinad + Palbociclib; first compound 0.0005 µM) | relative viability (Daporinad + Palbociclib; first compound 0.001581 µM) | relative viability (Daporinad + Palbociclib; first compound 0.005 µM) | relative viability (Daporinad + Palbociclib; first compound 0.01581 µM) | relative viability (Daporinad + Dasatinib; first compound 0.0005 µM) | relative viability (Daporinad + Dasatinib; first compound 0.001581 µM) | relative viability (Daporinad + Dasatinib; first compound 0.005 µM) | relative viability (Daporinad + Dasatinib; first compound 0.01581 µM)
1 | NCI-H1299 | 1 | 1.02 | 1.02 | 1.04 | 1.04 | 0.979 | 1.09 | 1.13 | 0.93 | 0.496 | – | – | – | – | – | – | – | –
2 | NCI-H1395 | – | – | – | – | – | 1.02 | 1.26 | 1.18 | 0.866 | 0.727 | 0.659 | 0.618 | 0.531 | 0.718 | 0.361 | 0.464 | 0.419 | 0.422
3 | NCI-H1563 | 0.764 | 1 | 0.873 | 0.523 | 0.574 | 1.12 | 1.31 | 1.29 | 1.2 | 1.16 | – | – | – | – | 0.43 | 0.423 | 0.497 | 0.458
4 | NCI-H1623 | – | – | – | – | – | – | – | – | – | – | – | – | – | – | 0.537 | 0.463 | 0.542 | 0.525
5 | NCI-H1648 | – | – | – | – | – | – | – | – | – | – | 0.305 | 0.291 | 0.278 | 0.237 | – | – | – | –
6 | NCI-H1650 | 0.244 | 0.214 | 0.18 | 0.208 | 0.197 | – | – | – | – | – | 0.321 | 0.413 | 0.415 | 0.334 | 0.379 | 0.366 | 0.325 | 0.247
7 | NCI-H1703 | 0.451 | 0.32 | 0.588 | 0.183 | 0.167 | 0.742 | 0.859 | 0.695 | 0.186 | 0.139 | – | – | – | – | – | – | – | –
8 | NCI-H1793 | – | – | – | – | – | 0.703 | 1.01 | 1.2 | 0.57 | 0.376 | 0.305 | 0.33 | 0.346 | 0.332 | 0.43 | 0.397 | 0.418 | 0.499
9 | NCI-H1944 | – | – | – | – | – | 1.21 | 1.24 | 1.22 | 0.879 | 0.741 | 0.36 | 0.356 | 0.374 | 0.353 | 0.228 | 0.232 | 0.221 | 0.237
10 | NCI-H2170 | – | – | – | – | – | – | – | – | – | – | 0.351 | 0.39 | 0.394 | 0.381 | 0.631 | 0.465 | 0.616 | 0.566
11 | NCI-H2342 | – | – | – | – | – | – | – | – | – | – | 0.513 | 0.506 | 0.506 | 0.535 | 0.316 | 0.299 | 0.339 | 0.295
12 | SK-MES-1 | – | – | – | – | – | 1.04 | 1.13 | 1.1 | 0.569 | 0.488 | 0.332 | 0.303 | 0.329 | 0.352 | 0.417 | 0.474 | 0.315 | 0.437
13 | SW 900 | – | – | – | – | – | – | – | – | – | – | 0.432 | – | 0.573 | 0.501 | 0.53 | 0.574 | 0.716 | 0.436
